Data on 1 substance can be found in US8741948B2, “Oral antimicrobial pharmaceutical compositions” (Cosmo Technologies Ltd., priority 2004, dated 2014).

Assay in all cases: MIC evaluation on pathogenic bacterial strains
Common to all, as to type: cell-based

For assay [1], the system named is Enterobacter cloacae (ATCC 17446431). An excerpt: (§1) In particular, the efficacy of rifamicin SV was verified by means of an evaluation of the MIC (Minimum Inhibiting Concentration) on specific pathogenic bacterial strains, such as, for example, Escherichia coli, […], Proteus vulgaris, Pseudomonas aeruginosa, Salmonella typhi and Enterobacter cloacae as shown in the following Table A.

Assay [2] relates to Enterobacter faecalis (ATCC 29212).
Text: as §1

For assay [3], the system named is Escherichia coli (ATCC 30218).
Text: as §1

The subject of assay [4] is Proteus vulgaris (ATCC 13315).
Text: as §1

Assay [5] relates to Pseudomonas aeruginosa (ATCC 27853).
Text: as §1

Assay [6] concerns Salmonella typhi (ATCC 13331).
Text: as §1

The test system of assay [7] is Staphylococcus aureus (ATCC 25213).
Text: as §1

For the substance rifamicin SV, the “MIC (Minimum Inhibiting Concentration)” value in assay [1] was greater than 400 µg/mL; in assay [2], 25 µg/mL; in assay [3], 400 µg/mL; in assay [4] it was 400 µg/mL; in assay [5], greater than 400 µg/mL; in assay [6], greater than 400 µg/mL. For the same substance, the “MIC (Minimum Inhibiting Concentration)” value in assay [7] was less than 0.4 µg/mL.
